# Calls of active or inactive are those of the source. The calls are words filed in the database; no cut-off is given here.
# System: Mus musculus
# Experiment: Anti-inflammatory activity in TPA-induced mouse ear edema model assessed as inhibition of ear swelling at 0.6 to 1.4 umol applied topically on ear pretreated for 0.5 hrs followed by TPA application and measured after 7 hrs
# Type: functional, organism-based
row,SMILES,inhibition
1,COc1ccc2c(c1)c(CC(=O)O)c(C)n2C(=O)c1ccc(Cl)cc1,Active
2,CC(C)=CC/C=C(\C)C(O)Cc1cc(C(=O)O)cc(CC=C(C)C)c1O (stereo not drawn),Active
3,CC(C)=CC/C=C(\C)C(O)Cc1cc(Br)cc(CC=C(C)C)c1O (stereo not drawn),Active
